Read-outs that look alike come from different tables or passages of the source.
Assays:
Format in all cases: in vivo
Barnyardgrass [1] = test: pre-emergence herbicide test; details: Echinochloa crus-galli, pre-emergence, read-out: % plant inhibition
Method in brief: (§1)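 Read-out is percent inhibition at approximately 14 days after seeding and treating. Seeds sat on compacted topsoil beneath a cover layer containing compound in acetone or water, with greenhouse bottom-watering.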

Cocklebur = test: pre-emergence herbicide test; details: Xanthium strumarium, pre-emergence, read-out: % plant inhibition
Method in brief: as §1

Corn = test: pre-emergence herbicide test; details: Zea mays, pre-emergence, read-out: % plant inhibition
Method in brief: as §1

Morning Glory [2] = test: pre-emergence herbicide test; details: Ipomoea, pre-emergence, read-out: % plant inhibition
Method in brief: as §1

Rice = test: pre-emergence herbicide test; details: Oryza sativa, read-out: % plant inhibition
Method in brief: as §1

Soybean [3] = test: pre-emergence herbicide test; details: Glycine max, pre-emergence, read-out: % plant inhibition
Method in brief: as §1

Velvetleaf [4] = test: pre-emergence herbicide test; details: Abutilon theophrasti, pre-emergence, read-out: % plant inhibition
Method in brief: as §1

Yellow Foxtail [5] = test: pre-emergence herbicide test; details: Setaria, read-out: % plant inhibition
Method in brief: as §1

Yellow Nutsedge = test: pre-emergence herbicide test; details: Cyperus, read-out: % plant inhibition
Method in brief: as §1

Barnyardgrass [6] = test: post-emergence herbicide test; details: Echinochloa crus-galli, post-emergence, read-out: % plant inhibition
Method in brief: (§2)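 Greenhouse plants grown from seeds in topsoil were treated two to three weeks after sowing with a spray solution or suspension of test chemical with about 0.4% by volume emulsifier, applied at 1870 L/Ha and 170.3 kPa. Percent inhibition per species was the endpoint.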

Blackgrass = test: post-emergence herbicide test; details: Alopecurus myosuroides, post-emergence, read-out: % plant inhibition; for inhibition at 200.072 g/ha: 0.1785 lb/A; for inhibition at 1000.92 g/ha: 0.893 lb/A; for inhibition at 5043.82 g/ha: 4.5 lb/A
Method in brief: as §2

Common Chickweed = test: post-emergence herbicide test; details: post-emergence, read-out: % plant inhibition
Method in brief: as §2

Morning Glory [7] = test: post-emergence herbicide test; details: Ipomoea, post-emergence, read-out: % plant inhibition
Method in brief: as §2

Soybean [8] = test: post-emergence herbicide test; details: Glycine max, post-emergence, read-out: % plant inhibition
Method in brief: as §2

Velvetleaf [9] = test: post-emergence herbicide test; details: Abutilon theophrasti, post-emergence, read-out: % plant inhibition
Method in brief: as §2

Yellow Foxtail [10] = test: post-emergence herbicide test; details: Setaria, read-out: % plant inhibition
Method in brief: as §2

Cn1nc(-c2cc(F)ccc2F)c(C=O)c1C(F)(F)F [Compound 34]
20%: inhibition at 5043.82 g/ha (Yellow Foxtail [5]; 4.5 lb/A) | inhibition at 5043.82 g/ha (Yellow Nutsedge; 4.5 lb/A) | inhibition at 5043.82 g/ha (Velvetleaf [9]; 4.5 lb/A)
75%: inhibition at 5043.82 g/ha (Velvetleaf [4]; 4.5 lb/A)
15%: inhibition at 1000.92 g/ha (Velvetleaf [4]; 0.893 lb/A) | inhibition at 5043.82 g/ha (Soybean [8]; 4.5 lb/A)
0%: inhibition at 200.072 g/ha (Barnyardgrass [1]; 0.1785 lb/A) | inhibition at 1000.92 g/ha (Barnyardgrass [1]; 0.893 lb/A) | inhibition at 5043.82 g/ha (Barnyardgrass [1]; 4.5 lb/A) | inhibition at 200.072 g/ha (Cocklebur; 0.1785 lb/A) | inhibition at 1000.92 g/ha (Cocklebur; 0.893 lb/A) | inhibition at 5043.82 g/ha (Cocklebur; 4.5 lb/A) | inhibition at 200.072 g/ha (Corn; 0.1785 lb/A) | inhibition at 1000.92 g/ha (Corn; 0.893 lb/A) | inhibition at 5043.82 g/ha (Corn; 4.5 lb/A) | inhibition at 200.072 g/ha (Morning Glory [2]; 0.1785 lb/A) | inhibition at 1000.92 g/ha (Morning Glory [2]; 0.893 lb/A) | inhibition at 5043.82 g/ha (Morning Glory [2]; 4.5 lb/A) | inhibition at 200.072 g/ha (Rice; 0.1785 lb/A) | inhibition at 1000.92 g/ha (Rice; 0.893 lb/A) | inhibition at 5043.82 g/ha (Rice; 4.5 lb/A) | inhibition at 200.072 g/ha (Soybean [3]; 0.1785 lb/A) | inhibition at 1000.92 g/ha (Soybean [3]; 0.893 lb/A) | inhibition at 5043.82 g/ha (Soybean [3]; 4.5 lb/A) | inhibition at 200.072 g/ha (Velvetleaf [4]; 0.1785 lb/A) | inhibition at 200.072 g/ha (Yellow Foxtail [5]; 0.1785 lb/A) | inhibition at 1000.92 g/ha (Yellow Foxtail [5]; 0.893 lb/A) | inhibition at 200.072 g/ha (Yellow Nutsedge; 0.1785 lb/A) | inhibition at 1000.92 g/ha (Yellow Nutsedge; 0.893 lb/A) | inhibition at 200.072 g/ha (Barnyardgrass [6]; 0.1785 lb/A) | inhibition at 1000.92 g/ha (Barnyardgrass [6]; 0.893 lb/A) | inhibition at 200.072 g/ha (Blackgrass; Table 4a) | inhibition at 200.072 g/ha (Blackgrass; Table 5a) | inhibition at 1000.92 g/ha (Blackgrass; Table 4a) | inhibition at 1000.92 g/ha (Blackgrass; Table 5a) | inhibition at 5043.82 g/ha (Blackgrass; Table 4a) | inhibition at 200.072 g/ha (Common Chickweed; 0.1785 lb/A) | inhibition at 1000.92 g/ha (Common Chickweed; 0.893 lb/A) | inhibition at 5043.82 g/ha (Common Chickweed; 4.5 lb/A) | inhibition at 200.072 g/ha (Morning Glory [7]; 0.1785 lb/A) | inhibition at 1000.92 g/ha (Morning Glory [7]; 0.893 lb/A) | inhibition at 200.072 g/ha (Soybean [8]; 0.1785 lb/A) | inhibition at 200.072 g/ha (Velvetleaf [9]; 0.1785 lb/A) | inhibition at 1000.92 g/ha (Velvetleaf [9]; 0.893 lb/A) | inhibition at 200.072 g/ha (Yellow Foxtail [10]; 0.1785 lb/A) | inhibition at 1000.92 g/ha (Yellow Foxtail [10]; 0.893 lb/A) | inhibition at 5043.82 g/ha (Yellow Foxtail [10]; 4.5 lb/A)
10%: inhibition at 5043.82 g/ha (Barnyardgrass [6]; 4.5 lb/A) | inhibition at 1000.92 g/ha (Soybean [8]; 0.893 lb/A)
30%: inhibition at 5043.82 g/ha (Blackgrass; Table 5a)
55%: inhibition at 5043.82 g/ha (Morning Glory [7]; 4.5 lb/A)
